“And” between values parts separate entries of the source, which are not always exact repeats. Equal entries are not always repeated.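 Five concentrations, 48 hours, 96-well plates. Abbreviation: GI50, concentration required for 50% inhibition of growth. Definition used: TGI = concentration required for complete inhibition of growth.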
Experiments:
Assay in all cases: NCI-60 cell line screen, 48 h
DU-145 prostate = system: DU-145 prostate
MDA-MB-231 breast = system: MDA-MB-231 breast
NCI/ADR-RES ovarian = system: NCI/ADR-RES ovarian
PC-3 prostate = system: PC-3 prostate
KM20L2 colon = system: KM20L2 colon
M19-MEL melanoma = system: M19-MEL melanoma
DLD-1 colon = system: DLD-1 colon
XF 498 CNS = system: XF 498 CNS
DMS 114 small cell lung = system: DMS 114 small cell lung
HOP-18 NSCLC = system: HOP-18 NSCLC

Compound	TGI (DU-145 prostate)	TGI (MDA-MB-231 breast)	TGI (NCI/ADR-RES ovarian)	TGI (PC-3 prostate)	TGI (KM20L2 colon)	TGI (M19-MEL melanoma)	GI50 (DU-145 prostate)	GI50 (MDA-MB-231 breast)	GI50 (NCI/ADR-RES ovarian)	GI50 (PC-3 prostate)	TGI (DLD-1 colon)	TGI (XF 498 CNS)	TGI (DMS 114 small cell lung)	TGI (HOP-18 NSCLC)
O=C(O)[C@H](c1ccccc1)[C@@H](C(=O)O)c1ccccc1	> 100 µM	> 100 µM	> 100 µM	> 100 µM	–	–	–	–	–	–	–	–	–	–
CCC(=O)Nc1nc2c(ncn2C2OC(COC(=O)CC)C(OC(=O)CC)C2OC(=O)CC)c(=O)[nH]1 (stereo not given)	–	–	–	–	> 100 µM	> 100 µM	–	–	–	–	–	–	–	–
CC(=O)O[C@H]1CCc2c(cc(N)c3c2C(=O)C[C@]2(C)C([C@H](C)CCCC(C)C)CCC32C)C1(C)C (stereo not given in full)	> 100 µM	> 100 µM	> 100 µM	> 100 µM	–	–	–	–	–	–	–	–	–	–
CC(C)(C)OC(=O)NCCCCCCCn1c2c(c3ccccc3c1=O)C(=O)c1ccccc1-2	> 100 µM	> 100 µM	> 100 µM	> 100 µM	–	–	31.8 µM	29.5 µM	26.1 µM	25.4 µM	–	–	–	–
CCCCn1c(-c2ccc(C(=O)O/N=C(\N)c3ccc4c(c3)OCO4)cc2)nc(-c2ccccc2)c1-c1ccccc1	3.21 µM	> 100 µM	4.48 µM	> 100 µM	–	–	1.65 µM	2.99 µM	1.52 µM	2.59 µM	–	–	–	–
C=C1C(=O)O[C@H]2[C@H]1CC/C(C=Nc1c(N)cc(C(F)(F)F)cc1Br)=C\CC[C@@]1(C)O[C@@H]21	2.95 µM	3.15 µM	–	3.85 µM	–	–	1.48 µM	1.33 µM	2.31 µM	1.5 µM	–	–	–	–
O=S(=O)(CCCl)c1ccc(Cl)cc1	12.3 µM	9.03 µM	40.6 µM	22.9 µM	–	–	3.33 µM	2.55 µM	3.86 µM	5.82 µM	–	–	–	–
N#CNC(N)=Nc1ccc(Cl)cc1	> 100 µM	> 100 µM	> 100 µM	> 100 µM	–	–	–	–	–	–	–	–	–	–
Cc1ccc(-c2nc3nc(-c4ccc(F)cc4)nc(N4CCCNCC4)c3o2)cc1	3.11 µM	3.11 µM	3.63 µM	3.18 µM	–	–	1.68 µM	1.63 µM	1.91 µM	1.56 µM	–	–	–	–
O=C1OCC2=C1C(c1ccccc1)c1cc3c(cc1N2CCO)OCO3 (stereo not given)	> 50 µM	> 50 µM	17.8 µM	> 50 µM	–	–	10.6 µM	24.8 µM	2.08 µM	4.66 µM	–	–	–	–
Cc1ccccc1NC(=O)C1C(=O)N(c2ccccc2C)C(=O)/C1=N\NC(N)=S (stereo not given)	–	–	–	–	> 100 µM	–	–	–	–	–	> 100 µM	> 100 µM	–	–
CCC1=CC2CN(C1)Cc1c([nH]c3ccccc13)[C@@](C(=O)OC)(c1cc3c(cc1OC)N(C)[C@H]1[C@@](O)(C(=O)OC)[C@H](OC(C)=O)[C@]4(CC)C=CCN5CC[C@]31[C@@H]54)C2 (stereo not given in full)	–	5.74 µM and 0.873 µM	–	32.6 µM and > 100 µM	–	–	–	0.0182 µM and 0.0211 µM	1.05 µM and 1.85 µM	< 0.005 µM	–	–	–	–
COc1cnc2c(c1)C(=O)c1c-2n(CCCN2CCN(C)CC2)c(=O)c2cc([N+](=O)[O-])ccc12	0.587 µM	–	5.82 µM	–	–	–	0.22 µM	–	0.323 µM	–	–	–	–	–
O=C(N[C@@H](C[Se][Se]C[C@H](NC(=O)c1ccc(Br)cc1F)C(=O)O)C(=O)O)c1ccc(Br)cc1F	> 100 µM	> 100 µM	> 100 µM	> 100 µM	–	–	> 100 µM	> 100 µM	> 100 µM	> 100 µM	–	–	–	–
Nc1ncnc2c1ncn2CC(O)CO (stereo not given)	–	–	–	–	–	> 100 µM	–	–	–	–	> 100 µM	–	> 100 µM	> 100 µM

— PubChem BioAssay (NCI)
